Values joined by “and” are separate entries in the source; they are usually repeats but may differ in a detail not shown here. Equal entries are not always repeated.
Assays:
[1] = molecular target: T1, recombinant PfSUB1 (rPfSUB1) (Plasmodium falciparum, UniProt Q8I0V0); experiment: rPfSUB1 fluorogenic peptide substrate cleavage inhibition assay; type: biochemical; settings: fluorogenic peptide substrate; mean ± SD of at least three measurements; read-out: IC50 (nM) (rPfSUB1)
T1 construct: Chymotrypsin-treated rPfSUB1 (expressed and purified as described previously); made in house
Text: We previously described the development of a fluorescence-based in vitro assay suitable for the evaluation of substrate-based PfSUB1 inhibitors, using recombinant PfSUB1 (rPfSUB1) and fluorogenic peptide substrates based on cleavage sites within endogenous protein substrates of PfSUB1 ([13], [21]). […] This was perhaps unsurprising due to the high molecular mass and polar nature of these compounds, including the presence of a carboxylic acid moiety that was designed to mimic endogenous PfSUB1 protein substrates by interacting with the basic S’ surface of the PfSUB1 active-site cleft ([16]). Collectively, these features likely rendered the compounds poorly membrane penetrant.
Fluorescence of this peptide is quenched by rhodamine dimerization in the intact substrate but increases upon cleavage at the internal Q-D bond. Chymotrypsin-treated rPfSUB1 (expressed and purified as described previously ([16]) was stored at −80 °C as a 228 U/mL stock in 20 mM Tris–HCl pH 8.2, 150 mM NaCl, 10% glycerol, and diluted for use (1:500 or 1:600) in reaction buffer (20 mM Tris–HCl pH 8.2, 150 mM NaCl, 12 mM CaCl2, 25 mM CHAPS). Peptidic boronic acid inhibitors were dissolved in 100% DMSO at 10 or 20 mM, then further diluted in DMSO to generate stock solutions ranging from 500 to 0.01 μM and then used diluted 1:100 in the enzyme reactions. All reactions were performed in wells of white 96-well microwell plates (Nunc); 50 μL diluted rPfSUB1 was preincubated for 5 min with 1 μL each of the serially diluted boronic acid inhibitors, followed by addition of 50 μL substrate solution (0.1 μM final). Subsequent fluorescence increase was continuously monitored using a SpectraMax M5e plate reader and SoftMax Pro-6.3 software, with readings taken every 5 min for 60 min using excitation and emission values of 552 and 580 nm, respectively. […] All experiments were performed in duplicate.

[2] = molecular target: T2, trypsin (Bos taurus, UniProt P00760); experiment: Trypsin inhibition assay (Boc-QAR-AMC cleavage); type: biochemical, bovine
T2 construct: purchased Sigma-Aldrich T1426; host or cells: bovine pancreas
T2 sequence (P00760 24-246): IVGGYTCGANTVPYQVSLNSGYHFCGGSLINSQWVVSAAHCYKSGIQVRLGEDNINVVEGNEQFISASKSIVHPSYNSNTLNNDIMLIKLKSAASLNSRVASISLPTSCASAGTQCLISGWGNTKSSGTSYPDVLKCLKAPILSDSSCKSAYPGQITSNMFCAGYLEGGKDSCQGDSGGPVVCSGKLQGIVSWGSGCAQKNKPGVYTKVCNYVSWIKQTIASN
Experimental: Analytical data are in accor dance with those reported in the literature12.
(+)-Pinanediol (1- am inobenzyl)boronate h ydrochloride 9g
A previousl y reported m ethod was used for the first step of the s ynthesis3.
Phenylm agnesium brom ide 0.7 M (3.1 m L, 2.15 mm ol, 1.2 equiv) was added dropwise at −78°C to a solution of (+)-pinanediol dichloromethyl boronate 24 (470 m g, 1.79 mmol, 1.0 equiv) in anh ydrous dieth yl ether (10 m L). Af ter 15 m in ZnCl2 1 M (1.8 m L, 1.8 mm ol, 1.0 equiv) was slowl y added at this t em perature. T he reaction m ixture was allowed to warm up to room tem perature over 2 hours. The inorganic precipitate was filtered off and the solvents were rem oved in vacuo. The residue was dissolved in pentane, washed with water and dried over Na2SO4. Rem oval of the solvent gives a product which was forwarded to the next step without purification. […]
Assays f or inh ib ition of tr yp s in activity (T PC K trea ted, f rom bovine pa ncreas; Sigm a-Aldrich T 1426) were based on cleavage of the fluorogenic peptide substrate Boc -QAR-AMC (Sigma- Aldrich B4153). which contains the fluorescent 7- am ino-4-m ethyl c oum arin (AMC) group. […] Cleavage of this bond results in release of AMC and i ncreased fluorescence. […]

T1 sequence (Q8I0V0 218-688): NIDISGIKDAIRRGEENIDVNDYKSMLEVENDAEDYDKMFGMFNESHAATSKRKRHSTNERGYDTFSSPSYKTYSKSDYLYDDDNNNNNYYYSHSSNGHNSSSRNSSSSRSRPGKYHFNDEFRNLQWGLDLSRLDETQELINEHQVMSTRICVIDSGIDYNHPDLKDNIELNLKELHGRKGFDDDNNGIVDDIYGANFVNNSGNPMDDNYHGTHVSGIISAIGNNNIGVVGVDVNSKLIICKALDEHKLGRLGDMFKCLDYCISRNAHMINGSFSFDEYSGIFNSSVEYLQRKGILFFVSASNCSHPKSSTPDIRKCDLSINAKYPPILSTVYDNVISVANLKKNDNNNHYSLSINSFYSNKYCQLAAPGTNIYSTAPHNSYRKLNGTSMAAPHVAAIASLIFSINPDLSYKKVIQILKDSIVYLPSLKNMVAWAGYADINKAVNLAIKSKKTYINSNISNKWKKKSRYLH

## CC(=O)NC(C(=O)NC(C(=O)NCC(=O)NC(C)B(O)O)C(C)C)C1CCCC1 (stereo not drawn) [3j]
[1]
  IC50: ~5.7 nM and 5.7 nM
[2]; 10 µM
  effect on trypsin activity: no detectable effect
[2]; bovine trypsin, Boc-QAR-AMC
  IC50: > 10000 nM
